Source: ChEMBL document CHEMBL1131009, “Structure-activity relationship studies of novel carbocyclic influenza neuraminidase inhibitors” (J Med Chem, 1998)

Molecular target: Neuraminidase (Influenza A virus (A/Puerto Rico/8/1934(H1N1)), UniProt P03468)
Assay: Inhibitory activity against influenza A neuraminidase from influenza A/PR/8/34 (H1N1).
Parameters: species or system Influenza A virus (strain: A/PR/8/34)

SMILES | IC50 [nM]
CC[C@@H](C)O[C@@H]1C=C(C(=O)O)C[C@H](N)[C@H]1NC(C)=O | 10
CCO[C@@H]1C=C(C(=O)O)C[C@H](N)[C@H]1NC(C)=O | 2000
CC(=O)N[C@@H]1[C@@H](N)CC(C(=O)O)=C[C@H]1OC(Cc1ccccc1)Cc1ccccc1 | > 1000
CCC(CC)O[C@@H]1C(F)=C(C(=O)O)C[C@H](N)[C@H]1NC(C)=O | 3
CCCCCCC[C@H](CC)O[C@@H]1C=C(C(=O)O)C[C@H](N)[C@H]1NC(C)=O | 1
CC(=O)N[C@@H]1[C@@H](N)CC(C(=O)O)=C[C@H]1OCc1ccccc1 | 620
CCCO[C@@H]1C=C(C(=O)O)C[C@H](N=C(N)N)[C@H]1NC(C)=O | 2
CCC(CC)O[C@@H]1C=C(C(=O)O)[C@@H](C)[C@H](N)[C@H]1NC(C)=O | 1500
CCCCCCCCCCO[C@@H]1C=C(C(=O)O)C[C@H](N)[C@H]1NC(C)=O | 600
CO[C@@H]1C=C(C(=O)O)C[C@H](N)[C@H]1NC(C)=O | 3700
CC(=O)N[C@H]1[C@H](O)C=C(C(=O)O)C[C@@H]1N=C(N)N | 100
CC[C@@H](CCC1CCCCC1)O[C@@H]1C=C(C(=O)O)C[C@H](N)[C@H]1NC(C)=O | 1
CC[C@H](C)O[C@@H]1C=C(C(=O)O)C[C@H](N)[C@H]1NC(C)=O | 9
CCCCCCCCCO[C@@H]1C=C(C(=O)O)C[C@H](N)[C@H]1NC(C)=O | 210
CC(=O)N[C@@H]1[C@@H](N)CC(C(=O)O)=C[C@H]1OC(CCCc1ccccc1)CCCc1ccccc1 | > 1000
CC[C@@H](CC1CCCCC1)O[C@@H]1C=C(C(=O)O)C[C@H](N)[C@H]1NC(C)=O | 16
CCC(CC)O[C@@H]1C(C)=C(C(=O)O)C[C@H](N)[C@H]1NC(C)=O | 2300
CCCO[C@@H]1C=C(C(=O)O)C[C@H](N)[C@H]1NC(C)=O | 180
CC[C@H](CCc1ccccc1)O[C@@H]1C=C(C(=O)O)C[C@H](N)[C@H]1NC(C)=O | 12
CC(=O)N[C@@H]1[C@@H](N)CC(C(=O)O)=C[C@H]1OCC(C)C | 200
CCCCO[C@@H]1C=C(C(=O)O)C[C@H](N)[C@H]1NC(C)=O | 300
CC(=O)N[C@@H]1[C@@H](N)CC(C(=O)O)=C[C@H]1OCCCc1ccc(-c2ccccc2)cc1 | 90
CC(=O)N[C@H]1[C@H](O)C=C(C(=O)O)C[C@@H]1N | 6300
CC[C@@H](CCc1ccccc1)O[C@@H]1C=C(C(=O)O)C[C@H](N)[C@H]1NC(C)=O | 0.3
CCCCCCCCO[C@@H]1C=C(C(=O)O)C[C@H](N)[C@H]1NC(C)=O | 180
CCCCO[C@@H]1C=C(C(=O)O)C[C@H](N=C(N)N)[C@H]1NC(C)=O | 3
CCCCCCCO[C@@H]1C=C(C(=O)O)C[C@H](N)[C@H]1NC(C)=O | 270
CCCCCCO[C@@H]1C=C(C(=O)O)C[C@H](N)[C@H]1NC(C)=O | 150
CCCCCO[C@@H]1C=C(C(=O)O)C[C@H](N)[C@H]1NC(C)=O | 200
CC[C@@H](C)O[C@@H]1C=C(C(=O)O)C[C@H](NC(=N)N)[C@H]1NC(C)=O (stereo in doubt; 61) | 0.5
